Values of other authors as cited in patent US11399558B2, “Rebaudioside-D containing sweetener compositions” (Heartland Consumer Products, LLC, priority 2015, dated 2022).
Like-named read-outs stand apart in the source and are kept apart here.

Key:
[1] = for Solubility in ethanol: ethanol / alcohol
[2] = absorbed into the bloodstream in the small intestine
[3] = heat, acid, and alkaline conditions
[4] = on a weight basis
[5] = Chang et al. 1983

Solubility in DMSO ([1]; DMSO)	Solubility in ethanol [1]	Solubility in ethanol ([1]; listed as Erythritol)	Solubility in water [1]	Solubility in water ([1]; listed as Erythritol)	Stability [3]	Stability in carbonated beverages [5]	SMILES	Excretion [2]	Sweetness relative to sucrose (cane sugar) [4]
Insoluble	Slight	slightly soluble	Soluble	water soluble	stable		OC[C@@H](O)[C@@H](O)CO [Eryrithritol, 1,2,3,4-butanetetrol]	for the most part is excreted unchanged in the urine	about 70%
						heat and pH stability	C=C1C[C@@]23CC[C@H]4[C@@](C)(CCC[C@@]4(C)C(=O)O[C@@H]4O[C@H](CO)[C@@H](O)[C@H](O)[C@H]4O)[C@@H]2CC[C@]1(O[C@@H]1O[C@H](CO)[C@@H](O)[C@H](O[C@@H]2O[C@H](CO)[C@@H](O)[C@H](O)[C@H]2O)[C@H]1O[C@@H]1O[C@H](CO)[C@@H](O)[C@H](O)[C@H]1O)C3 [Rebaudioside A]		
						heat and pH stability	C=C1C[C@@]23CC[C@H]4[C@@](C)(CCC[C@@]4(C)C(=O)O[C@@H]4O[C@H](CO)[C@@H](O)[C@H](O)[C@H]4O)[C@@H]2CC[C@]1(O[C@@H]1O[C@H](CO)[C@@H](O)[C@H](O)[C@H]1O[C@@H]1O[C@H](CO)[C@@H](O)[C@H](O)[C@H]1O)C3 [Stevioside]		
